The text below walks through data of article PMC12476087, “Loading of Dicarboxylatoplatinum(II)‐NHC Complexes in Bacterial Ghosts as an Advanced Development in Cancer Therapy” (Archiv Der Pharmazie, 2025).

Holding throughout (assay type): cell-based
In experiment [1] the test system is A2780wt cells. Put plainly: MTT assay, A2780wt cells. Particulars: MTT assay, 72 h exposure. On the procedure:
(§1) Carboplatin, a second‐generation platinum drug commonly used as part of standard first‐line chemotherapy for ovarian carcinoma, was examined as a reference compound due to its clinical relevance. Additionally, the nonmalignant bone marrow stromal cell line HS‐5 was included as a control to assess specificity of the complexes toward cancer cells.
(§2) Unloaded BGs (4 × 10^8 EcN or 2 × 10^8 Ec NM522, which is equivalent to the highest tested BG concentration) were tested as controls.
(§3) The exponentially growing cells were seeded at a density of 8 × 10^3 cells/well (A2780wt/cis) or 1 × 10^4 cells/well (HS‐5), respectively, into clear flat‐bottom 96‐well plates in triplicates. […] After another 72 h of incubation, the cellular metabolic activity was measured as an indicator of cell viability employing an MTT assay. Hereby, 20 µL of a 5 mg/mL MTT solution was added to each well, respectively. After 3 h of incubation, the medium was discarded, and the formazan crystals formed were dissolved in DMSO for 15 min with gentle shaking. […] The OD at 620 nm was subtracted from the OD at 595 nm. The OD of the medium was subtracted to exclude the unspecific staining caused by FCS‐containing medium. Cells treated with vehicle control (0.1% DMF) only were set at 100% metabolic activity. The IC50 values were calculated with Prism 8.0 (GraphPad Software Inc., Boston, MA, USA) using nonlinear regression. Significance was evaluated via a one sample t‐test performed with Prism 8.0.
(Tetrazolium assays rely on reduction of a dye to a coloured formazan, in cell work by metabolically active cells.)

Experiment [2] has as its system A2780wt cells. Put plainly: Annexin V/PI staining and FACS analysis, A2780wt. Particulars: reference at 50 µM, 24 h. As for the experimental part:
(§4) Therefore, we aimed to evaluate the apoptosis and necrosis inducing potential of complexes 1–4 via a fluorescent‐activated cell sorting (FACS) analysis with Annexin V/propidium iodide (PI) staining in A2780wt and A2780cis cells. Cells were treated for 24 h with both the free and BG‐loaded forms of each compound at 25 µM. Carboplatin (50 µM) served as a reference.
(§5) To evaluate the mode of cell death, a FACS measurement after staining with Annexin V and PI was conducted. First, 0.3 × 10^6 A2780wt or A2780cis cells were seeded into 12‐well plates and were allowed to adhere for 24 h. The compounds were added at 25 µM, either diluted from a freshly prepared DMF stock solution (0.1% DMF) or freshly thawed when loaded in BGs. After 24 h of incubation, the cells were harvested with accutase and washed with PBS. The cells were then resuspended in 200 µL of PBS each and 1 µL of PI solution (Sigma‐Aldrich, Taufkirchen, Germany) and 1 µL of Annexin V‐FITC (MabTag GmbH, Friesoythe, Germany) were added to each sample. These were then incubated for 20 min at rt under light‐protected conditions and afterward transferred onto ice. The percentage of apoptotic cells was determined by analyzing Annexin V positive /PI negative cells using a BD LSRFortessa flow cytometer and BD FACSDiva software (both BD Biosciences, San Jose, CA, USA). The apoptosis analysis included the evaluation of early apoptosis (Annexin V positive/PI negative) and late apoptosis/necrosis (Annexin V positive /PI positive).
Background: A flow cytometer gives signals particle by particle.

For experiment [3], the system named is A2780cis cells. Description: Annexin V/PI staining and FACS analysis, A2780cis. To be noted: reference at 50 µM, 24 h. As for the experimental part:
as §4, §5

Experiment [4] has as its system A2780wt cells. Put plainly: Comet assay (intracellular DNA damage). Particulars: 50 µM, 48 h incubation. As for the experimental part: Given that platinum‐based drugs are known to commonly induce DNA damage, a comet assay was conducted using A2780wt cells. This assay detects DNA damage such as DNA single/double strand breaks and DNA fragmentation, a common feature of apoptosis. […] DMF (0.1%)‐treated cells were used as a negative control to establish baseline DNA integrity.
Cellular DNA damage can be visualized by employing a comet assay, which is a single cell gel electrophoresis assay. Hereby, A2780wt cells were seeded at a density of 2 × 10^6 into 25 cm^2 flasks. After letting the cells adhere for 24 h in a humidified atmosphere, the cell culture medium was exchanged for medium containing the respective compound. The cells were then incubated for 48 h with the platinum complexes or 4 h with etoposide, respectively. After incubation, the cell growth was stopped by removing the compound‐containing medium, washing the cells with phosphate‐buffered saline (PBS) and detaching them with a rubber policeman. The detached cells were then centrifuged at 700g for 2 min and the resulting pellet was then washed with 5 mL of PBS. After that, the cells were adjusted to a concentration of 1 × 10^6 cells/mL and were resuspended in ice cold PBS. A total of 75 µL of liquified agarose per condition was transferred onto the slide to create a base layer. This base layer was solidified by transferring the slide to 4°C for 15 min. Afterwards, 10 µL of the above‐mentioned cell suspension in PBS were mixed with 90 µL of agarose. A total of 75 µL of this was added to each base layer, respectively. This layer was also allowed to solidify at 4°C for 15 min. The slide was then transferred to a small basin which contained pre‐chilled lysis buffer (14.6 g NaCl, 20 mL EDTA solution, 10 mL lysis solution, 10 mL DMSO, 60 mL deionized H2O), where it remained for 45 min in the dark at 4°C. The lysis buffer was then aspirated and exchanged with a pre‐chilled alkaline solution (1.2 g NaOH, 0.2 mL EDTA solution, 100 mL deionized H2O), where it remained for further 30 min in the dark at 4°C. The slide was then transferred to a horizontal electrophoresis chamber which was filled with cold alkaline solution. The electrophoresis conditions were set to 1.5 V/cm and 300 mA for 20 min. After the electrophoresis, the slide was transferred into a small basin containing pre‐chilled, deionized H2O. After 2 min, the water was aspirated and this washing step was repeated twice more. After the final rinse, the slide was submerged in 70% ethanol for 5 min. Once the slide has dried, 100 µL of diluted Vista Green DNA Dye was added to each well. After 15 min of incubation, the slides were analyzed on an IX‐70 epifluorescence microscope (Olympus, Shinjuku, Japan) using a FITC filter.

In experiment [5] the test system is A2780cis cells. Description: MTT assay, A2780cis cells. As for the experimental part:
as §1, §2, §3

The test system of experiment [6] is HS‐5 cells. Description: MTT assay, HS‐5 cells. To be noted: 72 h exposure, nonmalignant bone marrow stromal cells. As for the experimental part:
as §1
The exponentially growing cells were seeded at a density of 8 × 10^3 cells/well (A2780wt/cis) or 1 × 10^4 cells/well (HS‐5), respectively, into clear flat‐bottom 96‐well plates in triplicates. Following 24 h of incubation for the adherence of the cells at 37°C in a humidified atmosphere (5% CO2/95% air), the test compounds were added. […] For the evaluation of the cell growth inhibition by the compounds loaded in BGs, the BG suspensions were directly diluted in RPMI 1640 to the desired testing concentration (25 µM). After another 72 h of incubation, the cellular metabolic activity was measured as an indicator of cell viability employing an MTT assay. Hereby, 20 µL of a 5 mg/mL MTT solution was added to each well, respectively. After 3 h of incubation, the medium was discarded, and the formazan crystals formed were dissolved in DMSO for 15 min with gentle shaking. Afterward, the optical density (OD) was measured at 595 and 620 nm, respectively on an EnSpire Multimode Plate Reader (revvity, Waltham, MA, USA). The OD at 620 nm was subtracted from the OD at 595 nm. The OD of the medium was subtracted to exclude the unspecific staining caused by FCS‐containing medium. Cells treated with vehicle control (0.1% DMF) only were set at 100% metabolic activity. The IC50 values were calculated with Prism 8.0 (GraphPad Software Inc., Boston, MA, USA) using nonlinear regression. Significance was evaluated via a one sample t‐test performed with Prism 8.0.

For experiment [7], the system named is surface calreticulin on A2780cis cells. Description: Immunofluorescent surface calreticulin staining, A2780cis. To be noted: oxaliplatin at 1 µM for 24 h. As for the experimental part: (§6) Oxaliplatin, a known metal‐based ICD inducer, was included for comparison.
(§7) A2780wt or A2780cis cells were seeded at a density of 1.2 × 10^5 on cover slips and allowed to adhere for 24 h. […] Subsequently, the cells were washed again three times with PBS and they were incubated after adding the secondary antibody (Alexa‐Fluor‐conjugated anti‐rabbit, 1:200), for 45 min at rt. Subsequently, the cells were washed again three times with PBS and they were mounted on slides with mounting medium. After letting them dry overnight, visualization was performed by spinning disk confocal microscopy. […] Acquired images were background subtracted, individual cells were manually segmented, and fluorescence intensity for the calreticulin staining was quantified with a FIJI software. Two repetitions of the experiment were performed, where at least 20 cells per condition were analyzed and the mean intensity of each sample was calculated, respectively.

Experiment [8] deals with surface calreticulin on A2780wt cells. Description: Immunofluorescent surface calreticulin staining, A2780wt. Particulars: oxaliplatin at 1 µM for 24 h. On the procedure: as §6, §7

For orientation: IC50 means the point on the concentration scale where inhibition reaches its midpoint. Higher therefore signals a need for much substance. As for `[NH2][Pt]1([NH2])[O]C(=O)C2(CCC2)C(=O)[O]1` [Carboplatin, (SP‐4‐2)‐diammine(1,1‐cyclobutanedicarboxylato)platinum(II), reference compound], the IC50 in experiment [1] stood at 33.6 ± 2.1 µM; in experiment [5] (72 h exposure) it was 104 ± 11.5 µM; in experiment [6] it was 24.4 ± 0.99 µM. Further, the values for the early apoptosis in experiment [2] and in experiment [3] were 7.90 ± 0.29 and 6.47 ± 1.75, respectively. For the same compound, the results for the late apoptosis/ necrosis in experiment [2] and in experiment [3] were 16.8 ± 0.69 and 12.6 ± 1.17, respectively. Besides, the “intracellular DNA damage (comet formation)” value in experiment [4] was “did not show any evidence of comet formation”. For the same compound, the “Resistance factor RF = IC50(A2780cis)/IC50(A2780wt)” value in experiment [5] (72 h) is 3.1.

For the compound `O=C1[O][Pt]2([NH][C@@H]3CCCC[C@H]3[NH]2)[O]C1=O` [oxaliplatin, (SP‐4‐2)‐(1R,2R‐diaminocyclohexane)oxalatoplatinum(II), reference compound], the results for the “x‐fold intensity of surface calreticulin compared to untreated cells” value in experiment [7] and in experiment [8] were 1.36 ± 0.24 x‐fold and 0.86 ± 0.24 x‐fold, respectively.
